This passage reports AC50 results from ChEMBL document CHEMBL5291721, “A preclinical secondary pharmacology resource illuminates target-adverse drug reaction associations of marketed drugs” (Nat Commun, 2023).

One experiment has as its target Histamine H1 receptor (Homo sapiens, UniProt P35367).
The target of experiment [1] is 5-hydroxytryptamine receptor 2A (Homo sapiens, UniProt P28223). Format: functional, cell-based.
The target in experiment [2] is T1, 5-hydroxytryptamine receptor 2C (Homo sapiens, UniProt P28335).
T1 sequence (P28335 whole entry): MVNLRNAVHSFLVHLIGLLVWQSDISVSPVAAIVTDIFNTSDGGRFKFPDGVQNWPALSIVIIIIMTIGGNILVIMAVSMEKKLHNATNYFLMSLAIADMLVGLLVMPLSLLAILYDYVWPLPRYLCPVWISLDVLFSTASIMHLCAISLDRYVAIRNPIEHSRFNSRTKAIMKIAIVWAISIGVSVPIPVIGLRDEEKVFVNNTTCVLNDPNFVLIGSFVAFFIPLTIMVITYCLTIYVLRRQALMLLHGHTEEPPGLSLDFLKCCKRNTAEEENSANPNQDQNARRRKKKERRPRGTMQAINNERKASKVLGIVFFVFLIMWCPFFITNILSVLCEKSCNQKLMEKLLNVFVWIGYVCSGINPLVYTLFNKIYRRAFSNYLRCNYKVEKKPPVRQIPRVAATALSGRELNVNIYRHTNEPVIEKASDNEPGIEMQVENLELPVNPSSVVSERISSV

The target of experiment [3] is Kappa-type opioid receptor (Homo sapiens, UniProt P41145).
Sequence of Kappa-type opioid receptor (P41145 whole entry): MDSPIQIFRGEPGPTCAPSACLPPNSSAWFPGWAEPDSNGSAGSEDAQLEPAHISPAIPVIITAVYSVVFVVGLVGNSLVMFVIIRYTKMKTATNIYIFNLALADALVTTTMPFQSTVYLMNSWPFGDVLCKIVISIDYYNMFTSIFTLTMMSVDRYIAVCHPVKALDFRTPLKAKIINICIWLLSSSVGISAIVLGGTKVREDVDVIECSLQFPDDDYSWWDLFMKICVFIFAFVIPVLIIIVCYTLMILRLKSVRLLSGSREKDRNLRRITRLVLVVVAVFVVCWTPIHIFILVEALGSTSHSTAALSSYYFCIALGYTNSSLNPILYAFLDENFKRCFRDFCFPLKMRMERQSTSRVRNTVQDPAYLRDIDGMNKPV
Experiment [4] concerns the target T2, Cholecystokinin receptor type A (Homo sapiens, UniProt P32238).
T2 sequence (P32238 whole entry): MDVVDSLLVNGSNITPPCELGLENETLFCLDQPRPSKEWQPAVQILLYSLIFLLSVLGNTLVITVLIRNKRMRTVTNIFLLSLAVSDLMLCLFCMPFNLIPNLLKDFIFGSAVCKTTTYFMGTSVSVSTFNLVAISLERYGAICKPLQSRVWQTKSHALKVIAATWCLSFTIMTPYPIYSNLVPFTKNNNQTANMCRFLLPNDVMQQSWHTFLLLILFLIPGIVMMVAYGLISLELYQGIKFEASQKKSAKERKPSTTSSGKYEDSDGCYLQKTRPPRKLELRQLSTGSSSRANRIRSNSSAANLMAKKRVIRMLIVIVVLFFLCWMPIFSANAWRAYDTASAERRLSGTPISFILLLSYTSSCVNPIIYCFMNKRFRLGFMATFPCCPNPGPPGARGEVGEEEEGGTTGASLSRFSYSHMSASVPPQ

Experiment [5] concerns the target T3, Amine oxidase [flavin-containing] A (Homo sapiens, UniProt P21397).
T3 sequence (P21397 whole entry): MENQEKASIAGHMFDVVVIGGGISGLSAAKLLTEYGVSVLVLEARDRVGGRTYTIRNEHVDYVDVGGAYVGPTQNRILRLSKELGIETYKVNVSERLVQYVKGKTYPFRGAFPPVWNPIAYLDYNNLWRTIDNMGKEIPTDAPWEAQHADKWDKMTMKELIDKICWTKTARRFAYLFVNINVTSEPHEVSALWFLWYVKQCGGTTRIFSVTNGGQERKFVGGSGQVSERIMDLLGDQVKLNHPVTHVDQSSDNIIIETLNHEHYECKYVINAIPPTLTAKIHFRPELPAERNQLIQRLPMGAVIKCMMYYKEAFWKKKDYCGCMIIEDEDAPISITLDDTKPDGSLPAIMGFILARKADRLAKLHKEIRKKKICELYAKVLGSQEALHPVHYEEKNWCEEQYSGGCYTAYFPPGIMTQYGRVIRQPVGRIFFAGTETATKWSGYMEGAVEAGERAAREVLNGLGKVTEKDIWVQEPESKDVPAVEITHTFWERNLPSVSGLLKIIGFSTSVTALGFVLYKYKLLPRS
The experiment is classed as functional.

A further experiment has as its target T4, Adenosine receptor A3 (Homo sapiens, UniProt P0DMS8).
T4 sequence (P0DMS8 whole entry): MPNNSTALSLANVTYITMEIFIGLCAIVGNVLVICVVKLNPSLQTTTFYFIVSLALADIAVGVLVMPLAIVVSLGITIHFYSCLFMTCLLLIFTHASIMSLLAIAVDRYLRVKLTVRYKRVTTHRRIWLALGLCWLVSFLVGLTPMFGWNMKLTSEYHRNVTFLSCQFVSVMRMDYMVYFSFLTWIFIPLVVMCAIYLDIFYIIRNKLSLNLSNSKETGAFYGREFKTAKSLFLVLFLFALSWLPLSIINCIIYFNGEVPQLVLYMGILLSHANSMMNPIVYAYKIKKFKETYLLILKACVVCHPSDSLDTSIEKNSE

Experiment [6] deals with Sodium-dependent serotonin transporter (Homo sapiens, UniProt P31645).
Sequence of Sodium-dependent serotonin transporter (P31645 whole entry): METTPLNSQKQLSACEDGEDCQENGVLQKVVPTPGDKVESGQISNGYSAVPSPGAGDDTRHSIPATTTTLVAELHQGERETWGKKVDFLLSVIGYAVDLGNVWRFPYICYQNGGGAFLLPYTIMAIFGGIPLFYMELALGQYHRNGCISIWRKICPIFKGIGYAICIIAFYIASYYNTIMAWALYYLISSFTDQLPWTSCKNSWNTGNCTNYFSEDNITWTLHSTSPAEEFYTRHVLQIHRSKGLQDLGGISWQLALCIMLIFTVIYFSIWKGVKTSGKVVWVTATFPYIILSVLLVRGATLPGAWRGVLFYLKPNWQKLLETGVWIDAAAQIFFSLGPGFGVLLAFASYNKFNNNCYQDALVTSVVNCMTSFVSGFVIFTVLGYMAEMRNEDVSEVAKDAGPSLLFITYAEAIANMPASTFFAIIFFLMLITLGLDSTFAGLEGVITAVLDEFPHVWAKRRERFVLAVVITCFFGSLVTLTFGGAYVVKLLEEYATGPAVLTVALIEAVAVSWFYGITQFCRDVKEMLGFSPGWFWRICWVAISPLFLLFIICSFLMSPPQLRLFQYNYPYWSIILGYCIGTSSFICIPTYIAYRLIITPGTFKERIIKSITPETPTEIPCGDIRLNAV
Note: assay procedure not described here.

Sequence of Histamine H1 receptor (P35367 whole entry): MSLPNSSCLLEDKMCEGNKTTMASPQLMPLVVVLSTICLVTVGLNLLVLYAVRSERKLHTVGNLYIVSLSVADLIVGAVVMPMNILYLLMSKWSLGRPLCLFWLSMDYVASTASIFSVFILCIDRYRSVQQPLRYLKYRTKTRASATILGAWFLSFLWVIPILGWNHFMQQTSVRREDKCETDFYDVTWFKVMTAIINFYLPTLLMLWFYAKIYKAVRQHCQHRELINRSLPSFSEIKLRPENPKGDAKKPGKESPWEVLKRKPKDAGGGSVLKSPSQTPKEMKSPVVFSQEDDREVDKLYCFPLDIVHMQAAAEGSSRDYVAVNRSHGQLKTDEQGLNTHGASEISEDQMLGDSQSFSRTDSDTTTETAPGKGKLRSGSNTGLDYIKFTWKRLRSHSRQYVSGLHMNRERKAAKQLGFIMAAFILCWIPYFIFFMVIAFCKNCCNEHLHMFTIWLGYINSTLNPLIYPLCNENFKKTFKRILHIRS
Sequence of 5-hydroxytryptamine receptor 2A (P28223 whole entry): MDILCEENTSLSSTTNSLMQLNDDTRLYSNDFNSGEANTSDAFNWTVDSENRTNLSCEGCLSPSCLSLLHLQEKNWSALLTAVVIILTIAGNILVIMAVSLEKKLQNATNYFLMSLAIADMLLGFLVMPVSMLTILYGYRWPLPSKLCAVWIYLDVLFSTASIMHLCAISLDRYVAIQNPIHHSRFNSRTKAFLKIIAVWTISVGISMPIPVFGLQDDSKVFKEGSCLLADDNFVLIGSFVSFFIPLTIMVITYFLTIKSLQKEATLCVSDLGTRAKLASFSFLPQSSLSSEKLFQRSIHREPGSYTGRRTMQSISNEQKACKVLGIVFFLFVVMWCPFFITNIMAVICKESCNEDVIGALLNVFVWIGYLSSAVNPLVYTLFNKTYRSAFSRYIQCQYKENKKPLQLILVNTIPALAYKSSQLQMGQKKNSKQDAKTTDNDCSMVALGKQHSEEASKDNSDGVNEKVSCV

Regarding `C[C@@H](NCCCc1cccc(C(F)(F)F)c1)c1cccc2ccccc12`, the AC50 at Histamine H1 receptor was 16 µM; in experiment [1], more than 30 µM; in experiment [2], 0.73 µM; in experiment [3] it was more than 30 µM; in experiment [4] it was more than 30 µM; in experiment [5] it was more than 30 µM.
`COc1ccc(CC2c3cc(OC)c(OC)cc3CC[N+]2(C)CCC(=O)OCCCCCOC(=O)CC[N+]2(C)CCc3cc(OC)c(OC)cc3C2Cc2ccc(OC)c(OC)c2)cc1OC` (stereo unspecified): the AC50 on Histamine H1 receptor was more than 30 µM; in experiment [1], more than 30 µM; in experiment [2], 6.3 µM; in experiment [3], 22 µM; in experiment [4], more than 30 µM; in experiment [5], more than 30 µM.
At Adenosine receptor A3, `O=C(O)COc1ccc(C(=O)c2cccs2)c(Cl)c1Cl` came in with an AC50 of more than 30 µM.
Consider `CCN1CCN(Cc2ccc(Nc3ncc(F)c(-c4cc(F)c5nc(C)n(C(C)C)c5c4)n3)nc2)CC1` [ABEMACICLIB], for which the AC50 is 23 µM at Histamine H1 receptor; more than 30 µM in experiment [1]; more than 30 µM in experiment [2]; more than 30 µM in experiment [4]; more than 30 µM in experiment [5].
As for `COc1c2ccoc2cc2oc(=O)ccc12` [BERGAPTEN], the AC50 was more than 30 µM in experiment [6] and 23.8 µM at Adenosine receptor A3.
As to `COc1cc2nccc(Oc3ccc(NC(=O)C4(C(=O)Nc5ccc(F)cc5)CC4)cc3)c2cc1OC` [CABOZANTINIB], the AC50 at Histamine H1 receptor was more than 30 µM; in experiment [1] it was more than 30 µM; on Adenosine receptor A3, 0.379 µM; in experiment [2], more than 30 µM; in experiment [4] it was more than 30 µM; in experiment [5], more than 30 µM.
Take `CNC(=O)Oc1cccc2ccccc12` [CARBARIL]: the AC50 (in experiment [6]; at Adenosine receptor A3) was more than 30 µM throughout.
Take `CC(C(=O)O)c1ccc2c(c1)[nH]c1ccc(Cl)cc12` (stereo unspecified) [CARPROFEN]: the AC50 was more than 10 µM at Histamine H1 receptor; more than 10 µM in experiment [1]; more than 30 µM in experiment [2]; more than 10 µM in experiment [3]; more than 30 µM in experiment [4]; more than 10 µM in experiment [5].
As to `CC[C@H](C)C[C@H](C)CCCCCCCCC(=O)N[C@H]1C[C@@H](O)[C@@H](NCCN)NC(=O)[C@@H]2[C@@H](O)CCN2C(=O)[C@H]([C@H](O)CCN)NC(=O)[C@H]([C@H](O)[C@@H](O)c2ccc(O)cc2)NC(=O)[C@@H]2C[C@@H](O)CN2C(=O)[C@H]([C@@H](C)O)NC1=O` [CASPOFUNGIN], the AC50 is more than 30 µM in experiment [6] and 11.3 µM on Adenosine receptor A3.
As to `CN(C)[C@@H]1C(O)=C(C(N)=O)C(=O)[C@@]2(O)C(O)=C3C(=O)c4c(O)ccc(Cl)c4[C@@](C)(O)[C@H]3C[C@@H]12` [CHLORTETRACYCLINE], on Adenosine receptor A3, the AC50 is more than 30 µM.
For the compound `N[C@@H](CS)C(=O)O` [CYSTEINE], the AC50 (in experiment [6]; at Adenosine receptor A3) was more than 30 µM throughout.
For the compound `O=C1CN(/N=C/c2ccc(-c3ccc([N+](=O)[O-])cc3)o2)C(O)=N1` [DANTROLENE], the AC50 was more than 10 µM on Histamine H1 receptor; more than 10 µM in experiment [1]; more than 30 µM in experiment [2]; more than 10 µM in experiment [3]; more than 10 µM in experiment [4]; more than 10 µM in experiment [5].
Regarding `CC(C)N(CCC(C(N)=O)(c1ccccc1)c1ccccn1)C(C)C` (stereo unspecified) [DISOPYRAMIDE], the AC50 is more than 10 µM on Histamine H1 receptor; more than 30 µM in experiment [2]; 6.73 µM in experiment [3]; more than 30 µM in experiment [4]; more than 10 µM in experiment [5].
In turn, `C[C@H]1O[C@@H](n2cc(F)c(=O)[nH]c2=O)[C@H](O)[C@@H]1O` [DOXIFLURIDINE] registered an AC50 on Adenosine receptor A3 of more than 30 µM.
Consider `C[C@]12C=CC(=O)N[C@@H]1CC[C@@H]1[C@@H]2CC[C@]2(C)[C@@H](C(=O)Nc3cc(C(F)(F)F)ccc3C(F)(F)F)CC[C@@H]12` [DUTASTERIDE], for which the AC50 on Histamine H1 receptor is more than 10 µM; in experiment [1], more than 10 µM; in experiment [2], more than 30 µM; in experiment [3] it was more than 10 µM; in experiment [4], more than 10 µM; in experiment [5] it was more than 10 µM.
`OC[C@H]1O[C@@H](c2ccc(Cl)c(Cc3ccc(O[C@H]4CCOC4)cc3)c2)[C@H](O)[C@@H](O)[C@@H]1O` [EMPAGLIFLOZIN]: the AC50 (in experiment [6]; on Adenosine receptor A3) was more than 30 µM in each case.
With `CC[C@H](c1ccc(O)cc1)[C@@H](CC)c1ccc(O)cc1` [HEXESTROL], the figures for the AC50 (in experiment [6]; at Adenosine receptor A3) were more than 30 µM and 8.47 µM, respectively.
With `CC(C)Cc1ccc(C(C)C(=O)O)cc1` (stereo unspecified) [IBUPROFEN], the AC50 is more than 30 µM on Adenosine receptor A3; more than 30 µM in experiment [2]; more than 10 µM in experiment [3]; more than 30 µM in experiment [4]; more than 10 µM in experiment [5].
In the case of `CC(CCc1ccccc1)NCC(O)c1ccc(O)c(C(N)=O)c1` (stereo unspecified) [LABETALOL], the AC50 at Adenosine receptor A3 is more than 30 µM.
At Adenosine receptor A3, `C[N+](C)(C)C[C@H](O)CC(=O)[O-]` [LEVOCARNITINE] returned an AC50 of more than 30 µM.
On to `C=C[C@H]1C[N@@]2CC[C@H]1C[C@@H]2[C@@H](O)c1ccnc2ccc(OC)cc12` [QUINIDINE], for which the AC50 on Histamine H1 receptor is more than 10 µM; in experiment [2], more than 10 µM; in experiment [3], 4 µM; in experiment [4] it was more than 30 µM; in experiment [5], more than 10 µM.
Turning to `CN(C)CCc1c[nH]c2ccc(Cn3cncn3)cc12` [RIZATRIPTAN], the half-maximal activity concentration (AC50) on Histamine H1 receptor was 5.79 µM; in experiment [1], 7.75 µM; in experiment [3] it was more than 30 µM; in experiment [4], more than 30 µM; in experiment [5], more than 30 µM.
Turning to `CC(C)c1nc(N(C)S(C)(=O)=O)nc(-c2ccc(F)cc2)c1/C=C/[C@@H](O)C[C@@H](O)CC(=O)O` [ROSUVASTATIN], the AC50 (at Histamine H1 receptor; in experiment [1]; in experiment [2]; in experiment [3]; in experiment [4]; in experiment [5]) was more than 30 µM throughout.
`N[C@@H](CC(=O)N1CCn2c(nnc2C(F)(F)F)C1)Cc1cc(F)c(F)cc1F` [SITAGLIPTIN]: the AC50 on Histamine H1 receptor is more than 30 µM; in experiment [2], more than 30 µM; in experiment [3], more than 10 µM; in experiment [4], more than 30 µM; in experiment [5] it was more than 30 µM.
Consider `C[C@]1(Cn2ccnn2)[C@H](C(=O)O)N2C(=O)C[C@H]2S1(=O)=O` [TAZOBACTAM], for which, on Adenosine receptor A3, the AC50 was more than 30 µM.
For `CC(S)C(=O)NCC(=O)O` (stereo unspecified) [TIOPRONIN], the AC50 (on Histamine H1 receptor; in experiment [1]; in experiment [2]; in experiment [4]; in experiment [5]) was more than 30 µM in each case.
For the compound `CC1=C(/C=C/C(C)=C/C=C/C(C)=C/C(=O)O)C(C)(C)CCC1` [TRETINOIN], the AC50 at Adenosine receptor A3 turned out to be 8.21 µM.
For the compound `C[C@H](CCC(=O)O)[C@H]1CC[C@H]2[C@@H]3[C@@H](O)C[C@@H]4C[C@H](O)CC[C@]4(C)[C@H]3CC[C@]12C` [URSODIOL], the AC50 (at Histamine H1 receptor; in experiment [1]; in experiment [2]; in experiment [4]; in experiment [5]) was more than 30 µM each time.
With `Cc1onc(-c2ccccc2)c1-c1ccc(S(N)(=O)=O)cc1` [VALDECOXIB], the AC50 on Adenosine receptor A3 is 23.8 µM; in experiment [2], more than 30 µM; in experiment [3], more than 10 µM; in experiment [4], more than 30 µM; in experiment [5], more than 10 µM.

For orientation: AC50 means the midpoint of the concentration-response curve, whichever way the signal moves. Read a low AC50 as greater potency.
